Converted amounts (≈) assume the structure as drawn. The source made the active and inactive calls. The calls are words filed in the database; no cut-off is given here.
How the values were obtained:
[1] = test system: Streptococcus mutans; assay: Antibacterial activity against Streptococcus mutans MTCC 497 assessed as zone of inhibition at 100 ug/well measured after 24 hrs by agar well diffusion method; format: functional; conditions: MTCC 497, 24 h, read-out: DIZ
[2] = test system: Micrococcus luteus; assay: Antibacterial activity against Micrococcus luteus MTCC 106 assessed as zone of inhibition at 100 ug/well measured after 24 hrs by agar well diffusion method; format: functional; conditions: MTCC 106, 24 h, read-out: DIZ
[3] = test system: Staphylococcus aureus; assay: Antibacterial activity against Staphylococcus aureus MTCC 3160 assessed as zone of inhibition at 100 ug/well measured after 24 hrs by agar well diffusion method; format: functional; conditions: MTCC 3160, 24 h, read-out: DIZ
[4] = test system: Salmonella paratyphi; assay: Antibacterial activity against Salmonella paratyphi assessed as zone of inhibition at 100 ug/well measured after 24 hrs by agar well diffusion method; format: functional, Salmonella enterica subsp. enterica serovar Paratyphi A; conditions: Salmonella enterica, read-out: DIZ
[5] = test system: Salmonella typhi; assay: Antibacterial activity against Salmonella typhi assessed as zone of inhibition at 100 ug/well measured after 24 hrs by agar well diffusion method; format: functional, Salmonella enterica subsp. enterica serovar Typhi; conditions: Salmonella enterica, read-out: DIZ
[6] = test system: Klebsiella pneumoniae; assay: Antibacterial activity against Klebsiella pneumoniae MTCC 3384 assessed as zone of inhibition at 100 ug/well measured after 24 hrs by agar well diffusion method; format: functional; conditions: MTCC 3384, 24 h, read-out: DIZ
[7] = test system: Candida albicans; assay: Antifungal activity against Candida albicans MTCC 3017 assessed as zone of inhibition at 100 ug/well measured after 48 hrs by agar well diffusion method; format: functional; conditions: MTCC 3017, 48 h, read-out: DIZ
[8] = test system: Aspergillus fumigatus; assay: Antifungal activity against Aspergillus fumigatus MTCC 343 assessed as zone of inhibition at 100 ug/well measured after 48 hrs by agar well diffusion method; format: functional; conditions: MTCC 343, 48 h, read-out: DIZ
[9] = test system: Streptococcus mutans; assay: Antibacterial activity against Streptococcus mutans MTCC 497 measured after 24 hrs by NCCL protocol based broth dilution method; format: functional
[10] = test system: Micrococcus luteus; assay: Antibacterial activity against Micrococcus luteus MTCC 106 measured after 24 hrs by NCCL protocol based broth dilution method; format: functional
[11] = test system: Staphylococcus aureus; assay: Antibacterial activity against Staphylococcus aureus MTCC 3160 measured after 24 hrs by NCCL protocol based broth dilution method; format: functional
[12] = test system: Salmonella paratyphi; assay: Antibacterial activity against Salmonella paratyphi measured after 24 hrs by NCCL protocol based broth dilution method; format: functional, Salmonella enterica subsp. enterica serovar Paratyphi A
[13] = test system: Salmonella typhi; assay: Antibacterial activity against Salmonella typhi measured after 24 hrs by NCCL protocol based broth dilution method; format: functional, Salmonella enterica subsp. enterica serovar Typhi
[14] = test system: Klebsiella pneumoniae; assay: Antibacterial activity against Klebsiella pneumoniae MTCC 3384 measured after 24 hrs by NCCL protocol based broth dilution method; format: functional
[15] = test system: Candida albicans; assay: Antifungal activity against Candida albicans MTCC 3017 measured after 48 hrs by NCCL protocol based broth dilution method; format: functional
[16] = test system: Aspergillus fumigatus; assay: Antifungal activity against Aspergillus fumigatus MTCC 343 measured after 48 hrs by NCCL protocol based broth dilution method; format: functional

Structure (SMILES) | zone of inhibition at 100 µg/disc [1] [mm] | zone of inhibition at 100 µg/disc [2] [mm] | zone of inhibition at 100 µg/disc [3] [mm] | zone of inhibition at 100 µg/disc [4] [mm] | zone of inhibition at 100 µg/disc [5] [mm] | zone of inhibition at 100 µg/disc [6] [mm] | zone of inhibition at 100 µg/disc [7] [mm] | zone of inhibition at 100 µg/disc [8] [mm] | MIC ([9]; MTCC 497, 24 h) [µg/mL] | MIC ([10]; MTCC 106, 24 h) [µg/mL] | MIC ([11]; MTCC 3160, 24 h) [µg/mL] | MIC ([12]; Salmonella enterica) [µg/mL] | MIC ([13]; Salmonella enterica) [µg/mL] | MIC ([14]; MTCC 3384, 24 h) [µg/mL] | MIC ([15]; MTCC 3017, 48 h) [µg/mL] | MIC ([16]; MTCC 343, 48 h) [µg/mL] | further results
OB(O)c1ccc(/C=N/c2ccc(F)cc2)cc1 | 11 | 0 | 9 | 0 | 9 | 0 | 0 | 0 | 250 (≈ 1030 µM) | 500 (≈ 2060 µM) | 500 (≈ 2060 µM) | 500 (≈ 2060 µM) | 500 (≈ 2060 µM) | 500 (≈ 2060 µM) | 500 (≈ 2060 µM) | 500 (≈ 2060 µM) | 
CC1(C)O[C@H]2O[C@@H]3COB(c4ccc(/C=N/c5ccc(Br)cc5)cc4)O[C@@H]3[C@H]2O1 | 17 | 13 | 15 | 24 | 22 | 17 | 19 | 16 | 62.5 (≈ 136 µM) | 250 (≈ 546 µM) | 125 (≈ 273 µM) | 15.6 (≈ 34.1 µM) | 62.5 (≈ 136 µM) | 62.5 (≈ 136 µM) | 62.5 (≈ 136 µM) | 125 (≈ 273 µM) | 
CC1(C)O[C@H]2O[C@@H]3COB(c4ccc(/C=N/c5ccc(Cl)cc5)cc4)O[C@@H]3[C@H]2O1 | 22 | 13 | 16 | 13 | 22 | 24 | 11 | 0 | 62.5 (≈ 151 µM) | 125 (≈ 302 µM) | 125 (≈ 302 µM) | 125 (≈ 302 µM) | 62.5 (≈ 151 µM) | 62.5 (≈ 151 µM) | 250 (≈ 604 µM) | 500 (≈ 1210 µM) | 
CC1(C)O[C@H]2O[C@@H]3COB(c4cccc(/N=C/c5ccc6ccccc6c5O)c4)O[C@@H]3[C@H]2O1 | 17 | 17 | 13 | 13 | 23 | 19 | 19 | 33 | 125 (≈ 281 µM) | 62.5 (≈ 140 µM) | 125 (≈ 281 µM) | 125 (≈ 281 µM) | 62.5 (≈ 140 µM) | 62.5 (≈ 140 µM) | 62.5 (≈ 140 µM) | 31.2 (≈ 70.2 µM) | 
COc1ccc(/N=C/c2cccc(B3OC[C@H]4O[C@@H]5OC(C)(C)O[C@@H]5[C@H]4O3)c2)cc1 | 17 | 12 | 0 | 21 | 25 | 18 | 16 | 0 | 125 (≈ 305 µM) | 250 (≈ 611 µM) | 500 (≈ 1220 µM) | 62.5 (≈ 153 µM) | 31.2 (≈ 76.4 µM) | 62.5 (≈ 153 µM) | 125 (≈ 305 µM) | 500 (≈ 1220 µM) | 
CC1(C)O[C@H]2O[C@@H]3COB(c4ccccc4C=O)O[C@@H]3[C@H]2O1 | 20 | 18 | 20 | 21 | 26 | 27 | 26 | 25 | 62.5 (≈ 206 µM) | 62.5 (≈ 206 µM) | 62.5 (≈ 206 µM) | 31.2 (≈ 103 µM) | 31.2 (≈ 103 µM) | 15.6 (≈ 51.4 µM) | 31.2 (≈ 103 µM) | 31.2 (≈ 103 µM) | 
CC1(C)O[C@H]2O[C@@H]3COC(c4cccc(C=O)c4)O[C@@H]3[C@H]2O1 (stereo partly drawn) | 0 | 0 | 0 | 0 | 0 | 0 | 0 | 0 |  |  |  |  |  |  |  |  | MIC [9]: inactive; MIC [10]: inactive; MIC [11]: inactive; MIC ([12]; Salmonella enterica subsp. enterica serovar Paratyphi A): inactive; MIC ([13]; Salmonella enterica subsp. enterica serovar Typhi): inactive; MIC [14]: inactive; MIC [15]: inactive; MIC [16]: inactive
CC1(C)O[C@H]2O[C@@H]3COB(c4ccc(C=O)cc4)O[C@@H]3[C@H]2O1 | 21 | 12 | 12 | 21 | 22 | 20 | 18 | 0 | 62.5 (≈ 206 µM) | 125 (≈ 411 µM) | 125 (≈ 411 µM) | 31.2 (≈ 103 µM) | 31.2 (≈ 103 µM) | 62.5 (≈ 206 µM) | 125 (≈ 411 µM) | 250 (≈ 822 µM) | 
CC1(C)O[C@H]2O[C@@H]3COB(c4cccc(/C=N/c5ccc(Cl)cc5)c4)O[C@@H]3[C@H]2O1 | 16 | 17 | 15 | 13 | 25 | 22 | 11 | 0 | 125 (≈ 302 µM) | 125 (≈ 302 µM) | 250 (≈ 604 µM) | 250 (≈ 604 µM) | 31.2 (≈ 75.5 µM) | 62.5 (≈ 151 µM) | 250 (≈ 604 µM) | 500 (≈ 1210 µM) | 
CC1(C)O[C@H]2O[C@@H]3COB(c4cccc(/C=N/c5ccccc5)c4)O[C@@H]3[C@H]2O1 | 21 | 14 | 13 | 21 | 21 | 19 | 11 | 0 | 62.5 (≈ 165 µM) | 250 (≈ 659 µM) | 125 (≈ 330 µM) | 62.5 (≈ 165 µM) | 62.5 (≈ 165 µM) | 125 (≈ 330 µM) | 250 (≈ 659 µM) | 500 (≈ 1320 µM) | 
CC1(C)O[C@H]2O[C@@H]3COB(c4cccc(/N=C/c5ccccc5O)c4)O[C@@H]3[C@H]2O1 | 20 | 22 | 13 | 13 | 22 | 16 | 14 | 0 | 62.5 (≈ 158 µM) | 62.5 (≈ 158 µM) | 250 (≈ 633 µM) | 250 (≈ 633 µM) | 62.5 (≈ 158 µM) | 125 (≈ 316 µM) | 125 (≈ 316 µM) | 500 (≈ 1270 µM) | 
Cc1ccc(/N=C/c2cccc(B3OC[C@H]4O[C@@H]5OC(C)(C)O[C@@H]5[C@H]4O3)c2)cc1 | 13 | 12 | 13 | 12 | 20 | 20 | 17 | 14 | 250 (≈ 636 µM) | 250 (≈ 636 µM) | 125 (≈ 318 µM) | 500 (≈ 1270 µM) | 125 (≈ 318 µM) | 125 (≈ 318 µM) | 250 (≈ 636 µM) | 125 (≈ 318 µM) | 
C[C@@H]1C[C@@H]([C@H](O)CC2CC(=O)NC(=O)C2)C(=O)[C@@H](C)C1 [CYCLOHEXIMIDE] |  |  |  |  |  |  |  | 25 |  |  |  |  |  |  |  | 125 (≈ 444 µM) | 
OC(Cn1cncn1)(Cn1cncn1)c1ccc(F)cc1F [FLUCONAZOLE] |  |  |  |  |  |  | 18 |  |  |  |  |  |  |  | 62.5 (≈ 204 µM) |  | 
CN[C@@H]1[C@H](O[C@H]2[C@H](O[C@H]3[C@H](O)[C@@H](O)[C@H](N=C(N)N)[C@@H](O)[C@@H]3N=C(N)N)O[C@@H](C)[C@]2(O)C=O)O[C@@H](CO)[C@H](O)[C@H]1O.CN[C@@H]1[C@H](O[C@H]2[C@H](O[C@H]3[C@H](O)[C@@H](O)[C@H](N=C(N)N)[C@@H](O)[C@@H]3N=C(N)N)O[C@@H](C)[C@]2(O)C=O)O[C@@H](CO)[C@H](O)[C@H]1O.O=S(=O)(O)O.O=S(=O)(O)O.O=S(=O)(O)O [STREPTOMYCIN SULFATE] | 26 | 20 | 26 | 23 | 25 | 25 |  |  | 31.2 | 31.2 | 15.6 | 15.6 | 31.2 | 31.2 |  |  | 
